# According to patent publication EP4778522A1, “USE OF PYRROLOPYRIMIDINE COMPOUND AND COMPOSITION THEREOF” (Guangzhou Joyo Pharmatech Co., Ltd., priority 2023, dated 2025):
# Several values for one entry are separate records, joined by “and”; a condition that tells them apart may be missing. Equal entries are not always repeated. Marks after values point to notes of the source that are not given here.
# Key:
# [1] = test system: imiquimod-induced C3H/HeJ mice alopecia areata model; test: Imiquimod-induced mouse alopecia areata model: hair growth; assay type: in vivo; details: for Hair growth rate (%): listed as test drug
# Method: • 1) Animals: female C3H/He mice, SPF, aged 6-8 weeks at grouping. The animals were provided by Beijing Viewsolid Biotech. • 2) Reagents, positive drugs and test drugs
# After one week of adaptive feeding of C3H/HeJ mice: modeling was performed by applying imiquimod ointment to the neck, 3 times a week. The mice were carefully taken out, and about 0.05 g of 5% imiquimod ointment was dipped with a clean medical cotton swab and then applied evenly to the skin on the neck over a range of about 1.5 cm×1.5 cm. Before each application, the local part was cleaned by normal saline to remove the residual drug in the previous time. The continuous administration time was no longer than 10 weeks. When alopecia areata with an area size > 1 cm×1 cm was formed at the administration part, the administration was stopped, proving that a preparation model was successful. The mice in the normal control group were modeled by using blank ointment (vaseline ointment).
# During the period from the first administration to the end of the last administration after the alopecia areata modeling was successful, the alopecia areata part of each mouse was photographed once every 3 days, the photographing distance, angle and magnification times were fixed, and the hair growth of the alopecic areas on the backs of the mice was recorded.
# Visual quantification of the alopecia area images was performed using ImageJ software. The hair growth area (a) and hair loss area (b) were calculated. The hair growth rate was counted and analyzed: hair growth rate (%) = (a/b)* 100%. The newly grown hairs at the alopecia areata part of the mice in each group were scored based on the hair growth rate. Table 14 Scoring criteria of newly grown hairs
# [2] = test system: FITC-induced mouse atopic dermatitis model; test: FITC-induced mouse atopic dermatitis model: change in ear thickness; assay type: in vivo, Balb/c mice; details: 20 mg/dose topical twice a day; for Ear thickness Day 5 / Ear thickness Day 6 / Ear thickness Day 12 / Ear thickness Day 13 / ΔEar thickness Day 6-Day 5 / ΔEar thickness Day 13-Day 5: right ear; for Inhibitory rate% (Day 13): Δ ear thickness vs model group
# From the text: • 1) Animals: female Balb/c mice, specific pathogen-free (SPF), aged 6-7 weeks at grouping, with 10 mice per group. The animals were provided by Shanghai Jihui Laboratory Animal Care Co., Ltd. • 2) Reagents, positive drugs and test drugs
# FITC induction method: experimental animals were subjected to examination in an adaptation period and weight screening after examined to be qualified. The animals were randomly divided into 6 experimental groups according to the weight, including a normal group, a model group, a clobetasol propionate ointment group, a 0.5% Compound I group, a 1% Compound I group and a 2% Compound I group, with 10 mice in each group. On day 0 and day 1, after all the experimental animals were administered for 2 hours, the animals were anesthetized with zoletil (25 mg/kg) and xylazine (5 mg/kg), and then subjected to sensitization operation at the abdomen (a sensitized part). The abdominal part of the experimental animal at about 3×4 cm was depilated before sensitization, and then 0.5% FITC (dissolved in dibutyl phthalate/acetone solution) was applied to the alopecic areas of the abdomens of the experimental animals in model group for sensitization. An equal volume of dibutyl phthalate/acetone was given to the alopecic areas of the abdomens of the experimental animals in the normal-blank gel group.
# On day 5 and day 12, all the experimental animals were anesthetized with 1-4% isoflurane (all subsequent measurements on ear thickness were performed under anesthesia with isoflurane), and the thickness of the right-side ear margins of the experimental animals was measured as a baseline. On day 5 and day 12, 0.5% FITC was applied to both the inner and outer sides of the right ears of the experimental animals in model group for challenge treatment. An equal volume of dibutyl phthalate/acetone solution was given to the experimental animals in the normal-blank gel group.
# On day 6 and day 13, 24 hours after each FITC challenge, the thickness of the right-side ear margins of all the experimental animals was measured. Ear swelling response was determined by the change in the ear thickness before and after FITC challenge measured with a digital display thickness gauge, the measurement positions were basically kept constant, and the mean change in the ear thickness (ΔT±S.E.M.) was recorded for each group.
smiles,measurement,setting,value
CN(c1ncnc2[nH]ccc12)[C@@H]1CCc2cc(C#N)nn2C1 [compound I],Hair growth rate (%),"[1]; 3 mg/kg oral by gavage twice a day for one month, Day 30",71.62 ± 5.56%
same,amelioration effect (comparison),"[1]; 3 mg/kg oral, hair growth at alopecic area, Day 30",equivalent to that of the positive control drug at the dose of 10 mg/kg
same,Hair growth rate (%),"[1]; 10 mg/kg oral by gavage twice a day for one month, Day 30",83.93 ± 5.58%
same,therapeutic effect (comparison),"[1]; mouse alopecia areata model, oral",superior to that of the positive drug baricitinib
same,Ear thickness Day 5,[2]; 0.5% gel,0.17 mm
same,Ear thickness Day 6,[2]; 0.5% gel,0.19 mm
same,Ear thickness Day 12,[2]; 0.5% gel,0.18 mm
same,Ear thickness Day 13,[2]; 0.5% gel,0.19 mm
same,ΔEar thickness Day 6-Day 5,[2]; 0.5% gel,0.0250 mm
same,ΔEar thickness Day 13-Day 5,[2]; 0.5% gel,0.0170 ± 0.0033 mm
same,ΔEar thickness Day 13-Day 5,"[2]; 0.5% gel, listed as compound 1",0.0170 mm
same,Inhibitory rate% (Day 13),[2]; 0.5% gel,82.65%
same,Inhibitory rate% (Day 13),"[2]; 0.5% gel, listed as compound 1",82.65%****
same,Ear thickness Day 5,[2]; 1% gel,0.17 mm
same,Ear thickness Day 6,[2]; 1% gel,0.20 mm
same,Ear thickness Day 12,[2]; 1% gel,0.18 mm
same,Ear thickness Day 13,[2]; 1% gel,0.19 mm
same,ΔEar thickness Day 6-Day 5,[2]; 1% gel,0.0280 mm
same,ΔEar thickness Day 13-Day 5,[2]; 1% gel,0.0250 ± 0.0043 mm and 0.0250 mm
same,Ear thickness Day 5,[2]; 2% gel,0.17 mm
same,Ear thickness Day 6,[2]; 2% gel,0.20 mm
same,Ear thickness Day 12,[2]; 2% gel,0.18 mm
same,Ear thickness Day 13,[2]; 2% gel,0.20 mm
same,ΔEar thickness Day 6-Day 5,[2]; 2% gel,0.0260 mm
same,ΔEar thickness Day 13-Day 5,[2]; 2% gel,0.0250 ± 0.0017 mm and 0.0250 mm
